Type in all cases: cell-based, human
For one test, the system named is COUP-TFI. Description: Qualitative immunoreactivity signal for COUP-TFI in hiPSC-derived cardiomyocytes (co-staining with alpha actinin). Further details: key: +++: Strongest immunoreactivity signal (i.e. fluorescence staining); ++: Moderate immunoreactivity signal (i.e. fluorescence staining); +: Lowest immunoreactivity signal (i.e. fluorescence staining); +/−: Marginal immunoreactivity signal (i.e. fluorescence staining) (i.e. very low signal, not consistently observed in all cells).; −: No immunoreactivity signal (i.e. fluorescence staining). The method, then:
(§1) The purpose of this experiment was to determine the influence of retinoic acid (RA) (i.e. all-trans retinoic acid was used in the experiments below) on differentiation of hiPSC into atrial cardiomyocytes. Specifically, the influence of all-trans retinoic acid concentration (1 microM vs 10 microM) as well as the effect of timing/duration of retinoic acid application (i.e. d2-4 vs d3-d4 vs d2-18) were tested according to the following experimental scheme:
(§2) The aqueous media consisted of the following composition: 46.5% IMDM (Gibco 21056), 0.25% Bovostar BSA, 46.5% Ham's F12 with Glutamax, 2 mM Glutamax, 450 nM alphaMTG, 0.05 mg/ml ascorbic acid, 0.5% 5000 U/ml Pen/Strep (Gibco 12070), 0.01% 1000* Trace elements mix B (Cellgro 99-176-CL), 0.1% 1000* Trace elements mix C (Cellgro 99-176-CL). The aqueous media was used in all four treatment groups, except that RA was added at different concentrations depending on the given treatment group, i.e. 10 microM for treatment group 1 and 2 and 1 microM for treatment groups 3 and 4.
(§3) For all treatment groups, CHIR-99021 was used at a concentration of 5 microM.
(§4) For all experimental groups, a combination of 5 microM of XAV-939 and 0.25 microM of IWP-L6 was used. Plating of hiPSC hiPSC were seeded in 12-well plates at density of 60.000 cells per well or a split ratio that was empirically determined to give 30-80% confluence after 4 days. Culture media was replaced after 4 days, in each treatment group, with a differentiation media as described in Table 1.
(§5) Step a): The hiPSC were contacted with 5 microM of CHIR-99021 for a period of 48 hours. At the term of step a), the media was refreshed, i.e. replaced by a media devoid of CHIR-99021 and comprising 5 microM of XAV-939 and 0.25 microM of IWP-L6.
(§6) Step b): Immediately after having refreshed the medium of step a), i.e. immediately after the 48 hours of step a) (which correspond to 2 days after having initiated step a), the cells were contacted with 5 microM of XAV-939 and 0.25 microM of IWP-L6 as well as with 10 microM of all trans retinoic acid. The cells were cultured in this media for 48 hours. At the term of step b), the media was refreshed with a media but devoid of CHIR-99021, XAV-939, and IWP-L6. The hiPSC-derived cardiomyocytes were further cultured until 14 days after initiating step a), after which they were harvested and submitted to immunohistochemical procedure for assessment of atrial phenotype (see example 3 below).
(§7) Step b): Immediately after having refreshed the medium of step a), i.e. immediately after the 48 hours of step a), the cells were contacted with 5 microM of XAV-939 and 0.25 microM of IWP-L6. At 24 hours after initiating step b) (which corresponds to 3 days after having initiated step a), 10 microM of retinoic acid was added to the media of step b). […]

The next test concerns hiPSC. Description: Differentiation of hiPSC into cardiomyocytes having an atrial phenotype (phenotype analysis, text summary). Conditions: for differentiation of hiPSC into atrial cardiomyocytes (immunoreactive signal for COUP-TF1 and/or COUP-TF1): 1 microM; for differentiation of hiPSC into cardiomyocytes having an atrial phenotype (immunoreactive signal for COUP-TF1 and/or COUP-TF1): 10 microM. The protocol: as §1, §5, §6
as §6, with “step” for “step a) (which correspond to 2 days after having initiated step”, “of IWP-L6. At 24 hours after initiating step b) (which corresponds to 3 days after having initiated step a),” for “of IWP-L6 as well as with”, “of” for “of all trans”, “retinoic acid was added to the media of step b).” for “retinoic acid.”, “for 24” for “for 48”
Step b): Immediately after having refreshed the medium of step a), i.e. immediately after the 48 hours of step a), the cells were contacted with 5 microM of XAV-939 and 0.25 microM of IWP-L6. At 24 hours after initiating step b) (which corresponds to 3 days after having initiated step a), 1 microM of retinoic acid was added to the media of step b). The cells were cultured in this media for 24 hours. At the term of step b), the media was refreshed with a media but devoid of CHIR-99021, XAV-939, and IWP-L6. […]

For another test, the system named is COUP-TFII. Description: Qualitative immunoreactivity signal for COUP-TFII in hiPSC-derived cardiomyocytes (co-staining with alpha actinin). More on the design: key: +++: Strongest immunoreactivity signal (i.e. fluorescence staining); ++: Moderate immunoreactivity signal (i.e. fluorescence staining); +: Lowest immunoreactivity signal (i.e. fluorescence staining); +/−: Marginal immunoreactivity signal (i.e. fluorescence staining) (i.e. very low signal, not consistently observed in all cells).; −: No immunoreactivity signal (i.e. fluorescence staining). The protocol: as §1, §2, §3, §4, §5, §6, §7

Where [1] appears, read: treatment group 1: 10 microM RA/d 2-4.
[2] abbreviates: treatment group 2: 10 microM RA/d 3-4.
The mark [3] stands for this setting: treatment group 3: 1 microM RA/d 3-4.
The mark [4] stands for this setting: treatment group 4: 1 microM RA/d 2-14 + 4.

These results are taken from patent US20200216812A1, “IN VIVO METHOD FOR DIFFERENTIATING HUMAN PLURIPOTENT STEM CELLS INTO ATRIAL CARDIOMYOCYTES” (Ncardia B.V., priority 2016, published 2020).

With `CC1=C(/C=C/C(C)=C/C=C/C(C)=C/C(=O)O)C(C)(C)CCC1` [RA, all-trans retinoic acid], the “intensity of the immunoreactivity signal for COUP-TFI” value with COUP-TFI (setting [1]) is “++”; in the test with COUP-TFI (setting [2]), “+”; with COUP-TFI (setting [3]), “−”; in the test on COUP-TFI (setting [4]), “+/−”. The “differentiation of hiPSC into atrial cardiomyocytes (immunoreactive signal for COUP-TF1 and/or COUP-TF1)” value is on record as “low immunoreactive signal” with hiPSC (added 2 days (48 hours) after initiating step a, duration 12 days (group 4)) and “marginal or no immunoreactive signal” in the test with hiPSC (added 3 days (72 hours) after initiating step a, duration 24 hours (group 3)). In addition, the “differentiation of hiPSC into cardiomyocytes having an atrial phenotype (immunoreactive signal for COUP-TF1 and/or COUP-TF1)” value is listed as “strongest immunoreactive signal” in the test with hiPSC (added 2 days (48 hours) after initiating step a, duration 48 hours (group 1)) and “moderate immunoreactive signal” in the test on hiPSC (added 3 days (72 hours) after initiating step a, duration 24 hours (group 2)). In addition, the “intensity of the immunoreactivity signal for COUP-TFII” value with COUP-TFII (setting [1]) is listed as “+++”; in the test with COUP-TFII (setting [2]), “++”; with COUP-TFII (setting [3]), “−”; in the test with COUP-TFII (setting [4]) it was “+”.
